According to US6387893B1, “Spirotricyclic substituted azacycloalkane derivatives and uses thereof” (Merck & Co., Inc., priority 1999, dated 2002):
Counter-ions that a name gives are not always drawn.

Biological target: T1, human alpha 1a adrenergic receptor (Homo sapiens, UniProt P35348)
T1 sequence (P35348 1-466): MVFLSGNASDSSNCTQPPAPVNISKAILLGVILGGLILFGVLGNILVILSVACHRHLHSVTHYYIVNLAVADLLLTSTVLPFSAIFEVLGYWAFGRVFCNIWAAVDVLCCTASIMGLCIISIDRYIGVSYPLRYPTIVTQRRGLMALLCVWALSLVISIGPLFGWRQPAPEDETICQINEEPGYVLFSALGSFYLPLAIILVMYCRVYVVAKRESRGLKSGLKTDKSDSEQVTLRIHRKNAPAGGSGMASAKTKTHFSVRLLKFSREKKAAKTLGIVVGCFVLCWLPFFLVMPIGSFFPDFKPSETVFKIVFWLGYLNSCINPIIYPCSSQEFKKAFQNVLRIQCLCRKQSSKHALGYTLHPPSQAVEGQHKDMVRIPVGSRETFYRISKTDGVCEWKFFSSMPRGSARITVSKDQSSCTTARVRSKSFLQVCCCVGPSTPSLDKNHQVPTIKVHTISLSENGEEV
Assay: Screening assay: alpha 1a adrenergic receptor binding ([125I]-HEAT competition)
Conditions: membranes from stably transfected human alpha 1a cell line (ATCC CRL 11140), 100 pM [125I]-HEAT
Experimental: Screening Assay: Alpha 1a Adrenergic Receptor Binding
Membranes prepared from the stably transfected human alpha 1a cell line (ATCC CRL 11140) were used to identify compounds that bind to the human alpha 1a adrenergic receptor. These competition binding reactions (total volume=200 μl) contained 50 mM Tris-HCl pH. 7.4, 5 mM EDTA, 150 mM NaCl, 100 pM [^125I]-HEAT, membranes prepared from the alpha 1a cell line and increasing amounts of unlabeled ligand. Reactions were incubated at room temperature for one hour with shaking. Reactions were filtered onto Whatman GF/C glass fiber filters with a Inotec 96 well cell harvester. Filters were washed three times with ice cold buffer and bound radioactivity was determined (Ki).

With `O=C(NCCCN1CCC2(CC1)c1ccccc1Oc1ccccc12)N1C(=O)OC[C@@H]1c1ccc(F)c(F)c1` [Example 35, 1′-{3-[(4S)-(3,4-Difluorophenyl)-2-oxooxazolidin-3-carbonylamino]propyl}spiroxanthene-9,4′-piperidine] as the compound, how does the Ki read?
Its Ki is under 20 nM.

Tested on: not given
Assay: not given
Conditions: not given

For `COCC1=C(C(=O)OC)[C@H](c2ccc(F)c(F)c2)N(C(=O)NCCCN2CCC3(CC2)c2ccccc2[S+]([O-])c2ccccc23)C(=O)N1` (as salt: HCl) [Example 27, 1,2,3,6-tetrahydro-1-[(10-oxo-spirothioxanthene-9,4′-piperidin-1′-yl)propyl]aminocarbonyl-5-methoxycarbonyl-4-methoxymethyl-6(S)-(3,4-difluorophenyl)-2-oxopyrimidine], which melting point is on record?
The melting point was 185 to 196 °C.

Which melting point does the source give for `O=C(NCCCN1CCC2(CC1)c1ccccc1S(=O)(=O)c1ccccc12)N1C(=O)OC[C@@H]1c1ccc(F)c(F)c1` (as salt: HCl) [Example 32, 1′-{3-[(4S)-(3,4-Difluorophenyl)-2-oxooxazolidin-3-carbonylamino]propyl}-(10,10-dioxo-spirothioxanthene-9,4′-piperidine)] here?
Its melting point is 158 to 187 °C.

With `COCC1=C(C(=O)OC)[C@H](c2ccc(F)c(F)c2)N(C(=O)NCCCN2CCC3(CC2)c2ccccc2S(=O)(=O)c2ccccc23)C(=O)N1` (as salt: HCl) [Example 33, 1,2,3,6-tetrahydro-1-[(10,10-dioxo-spirothioxanthene-9,4′-piperidin-1′-yl)propyl]aminocarbonyl-5-methoxycarbonyl-4-methoxymethyl-6(S)-(3,4-difluorophenyl)-2-oxopyrimidine] as the compound, how does the melting point read?
Its melting point is 158 to 196 °C.

With `COCC1=C(C(=O)OC)[C@H](c2ccc(F)c(F)c2)N(C(=O)NCCCN2CCC3(CC2)c2ccccc2-c2ncccc23)C(=O)N1` (as salt: hydrochloride) [Example 49] as the compound, how does the melting point read?
The melting point was 157 to 180 °C.

With `COCC1=C(C(=O)OC)[C@H](c2ccc(F)c(F)c2)N(C(=O)NCCCN2CCC3(CC2)c2ccccc2-c2cccnc23)C(=O)N1` (as salt: hydrochloride) [Example 53, 1,2,3,6-tetrahydro-1-[3-((spiro(9H-indeno[2,1-b]pyridine)-9,4′-piperidin)-1′-yl)propylaminocarbonyl]-5-methoxycarbonyl-4-methoxymethyl-6(S)-(3,4-difluorophenyl)-2-oxopyrimidine] as the compound, how does the melting point read?
Its melting point is 201 to 209 °C.

Which melting point does the source give for `O=C(NCCCN1CCC2(CC1)c1ccccc1CCc1ccccc12)N1C(=O)OC[C@@H]1c1ccc(F)c(F)c1` (as salt: hydrochloride) [Example 57, 1′-{3-[4(S)-(3,4-difluorophenyl)-2-oxooxazolidin-3-carbonylamino]-propyl}-(10,11-dihydrospiro-5H-dibenzo[a,d]cycloheptene)-5,4′-piperidine] here?
The melting point was 146 to 177 °C.

For `O=C1OC[C@H](c2ccc(F)c(F)c2)N1CCCCCN1CCC2(CC1)c1ccccc1CCc1ccccc12` (as salt: hydrochloride) [Example 58, 1′-{5-[4(S)-(3,4-difluorophenyl)-2-oxooxazolidin-3-yl]-pentyl}-(10,11-dihydrospiro-5H-dibenzo[a,d]cycloheptene)-5,4′-piperidine], which melting point is on record?
The melting point was 232 to 236 °C.

With `O=C(NCCCN1CCC2(CC1)c1ccccc1Oc1ccccc12)N1C(=O)OC[C@@H]1c1ccc(F)c(F)c1` [Example 35, 1′-{3-[(4S)-(3,4-Difluorophenyl)-2-oxooxazolidin-3-carbonylamino]propyl}spiroxanthene-9,4′-piperidine] as the compound, how does the melting point read?
Its melting point is 138 to 139 °C.
